Experimental data from paper PMC12306498, “Microwave-assisted synthesis of tubulin assembly inhibitors as anticancer agents by aryl ring reversal and conjunctive approach” (RSC Medicinal Chemistry, 2025).
Where “and” joins values, the source holds several entries; their conditions need not be identical. Equal values may be shown once. Entries after “also recorded” stand apart in the source; their conditions may differ.

Key:
HCT116 spheroids = test: 3D culture (spheroids) from HCT116 cells; assay type: cell-based; conditions: 160 nM for 48 h
Method: (§1) 3D culturing of BX-PC3 and HCT116 cells were performed seeding 500 cells/well into ultra-low attachment 96-well round-bottomed plates and cultured in supplemented RPMI and DMEM, respectively, at 37 °C under […] atmosphere for 7 days, until spheroids were formed. To evaluate the effect of compound 4 on spheroid growth, a range of doses (10–320 nM) was added to the cell suspension after spheroid formation, and the culture was maintained for 48 h. Spheroid diameters wwere measured using the ZEISS ZEN imaging software from the pictures obtained with an inverted optical microscope (Axio Vert A1, Zeiss, Oberkochen, Germany).

BX-PC3 spheroids = test: 3D culture (spheroids) from BX-PC3 cells; assay type: cell-based; conditions: 320 nM for 48 h
Method: as §1

tubulin [1] = test: Inhibition of tubulin polymerization (tubulin assembly, turbidity at 350 nm); assay type: biochemical; conditions: tubulin at 10 μM, read-out: Tubulin IC50 ± SD
Method: The assembly reaction mixtures contained 0.8 M monosodium glutamate (pH 6.6 with HCl in a 2 M stock solution), 10 μM tubulin, 4% (v/v) DMSO, and varying concentrations of drug. Following a 15 min preincubation at 30 °C, samples were chilled on ice, GTP to 0.4 mM was added, and turbidity development was followed at 350 nm in a temperature-controlled recording spectrophotometer for 20 min at 30 °C. The extent of reaction was measured. Full experimental details were previously described.[35]

[2] = system: BX-PC3 pancreatic cancer cells; test: BX-PC3 cell viability (MTS assay); assay type: cell-based; conditions: Homo sapiens, BXPC-3; inhibition of growth of BX-PC3 pancreatic cancer cells; incubation time 48 h
Method: (§2) MCF-7 breast carcinoma cells were obtained from the National Cancer Institute drug screening laboratory. HCT116 cell line was grown in Dulbecco's modified Eagle's medium (DMEM). BX-PC3 cells were grown in RPMI-1640 medium. Both media were supplemented with 10% fetal bovine serum (FBS), 100 U mL^−1 penicillin, […] streptomycin and 1% of L-glutamine. Cell lines were cultured at 37 °C in 5% CO2 and 95% air in a humidified incubator. T-ALL (Jurkat) cells were grown in RPMI-1640 medium. Both media were supplemented with 115 units per mL of penicillin G, 115 μg mL^−1 of streptomycin, and 10% fetal bovine serum (FBS, all purchased from Invitrogen, Milan, Italy). Cancer cells were seeded in tissue treated, flat bottom, 384-well plates (Corning, Corning, NY, USA) in 24 μL of complete medium per well, using a Microlab STAR 96-CORE liquid handling system (Hamilton Bonaduz, Bonaduz, Switzerland).
(§3) Cell viability of HCT116 and BX-PC3 cells was determined using the 3-(4,5-dimethylthiazol-2-yl)-5-(3-carboxymethoxyphenyl)-2-(4-sulfophenyl)-2H-tetrazolium (MTS) colorimetric assay.[38] […] After 48 h of growth, the MTS reagent was added to each well and absorbance at […] was measured by a microplate reader (Victor, PerkinElmer). The results were expressed as % relative to control cells (100%) and IC50 values were calculated using GraphPad Prism statistics software by nonlinear regression analysis.

[3] = system: Jurkat T lymphocyte cancer cells; test: Jurkat (T-ALL) cell viability (resazurin assay); assay type: cell-based; conditions: Homo sapiens, 96 h, inhibition of growth of Jurkat T lymphocyte cancer cells, incubation time 96 h
Method: as §2, with “Cancer cells were seeded in tissue treated, flat bottom, 384-well plates (Corning, Corning, NY, USA) in 24 μL of complete medium per well, using a Microlab STAR 96-CORE liquid handling system (Hamilton Bonaduz, Bonaduz, Switzerland).” left out
For T-ALL, drug stock solutions were prepared for each compound by dissolving them at 10 mM in DMSO. […] The fluorescence signal was measured at 590 nm using a Spark 10 M spectrophotometer (Tecan Group Ltd., Mannedorf, Switzerland). Only plates with Z′ > 0.5 were further analyzed for the drug screening. Raw data were normalized according to the following equation: cell viability (%) = (x − POS)/(NEG − POS) × 100, where x is the relative fluorescence units (RFU) collected from each single well, NEG is the mean of intraplate negative controls (DMSO, corresponding to 100% cell viability), and POS is the mean of intraplate positive controls (benzethonium chloride 75 μM, equal to 0% cell viability). […]

tubulin [4] = test: Inhibition of [3H]colchicine binding to tubulin
Method: The reaction mixtures contained 1.0 μM tubulin, 5.0 μM [^3H]colchicine, and 5.0 or 1.0 μM inhibitor, as indicated, and were incubated for 10 min at 37 °C. Complete details were described previously.[36]

[5] = system: MCF-7 human breast carcinoma cells; test: MCF-7 cell growth inhibition; assay type: cell-based; conditions: Homo sapiens, MCF7, cells grown for 96 h, read-out: MCF-7 IC50 ± SD
[6] = system: HCT116 colon cancer cells; test: HCT116 cell viability (MTS assay); assay type: cell-based; conditions: inhibition of growth of HCT116 colon cancer cells, incubation time 48 h
Method: as §2, §3

IC50 (tubulin [1]): 190 ± 6 nM
IC50 [2]: 17 nM
IC50 [3]: 41 nM
Colch. binding (% ± SD) (tubulin [4]; inhibition of [3H]colchicine binding, tubulin, [3H]colchicine, inhibitor at 1, 5 and 5 μM): 78% and 78 ± 1%
Inhibition of [3H]colchicine binding (tubulin [4]; inhibitor at 1 μM, tubulin 1 μM, [3H]colchicine 5 μM): 76%
IC50 [5]: 9.6 ± 0.8 nM
IC50 ([6]; Homo sapiens, HCT-116, 48 h): 18 nM
IC50 [6]: 28 nM
SMILES: COc1ccc(-c2cn(-c3ccccn3)cc2C(=O)c2cc(OC)c(OC)c(OC)c2)cc1 [Compound 4, (4-(4-Methoxyphenyl)-1-(pyridin-2-yl)-1H-pyrrol-3-yl)(3,4,5-trimethoxyphenyl)methanone]
Spheroid diameter and morphology (HCT116 spheroids): altered the morphology of treated spheroids; also recorded: significant reduction of spheroid diameter
Spheroid diameter and morphology (BX-PC3 spheroids): altered the morphology of treated spheroids; also recorded: significant reduction of spheroid diameter
